Test results from ChEMBL document CHEMBL4725258, “2β-3,4-Unsaturated sialic acid derivatives: Synthesis optimization, and biological evaluation as Newcastle disease virus hemagglutinin-neuraminidase inhibitors” (Bioorg Med Chem, 2020).

How the values were obtained:
[1] = target: T1, Sialidase-3 (Homo sapiens, UniProt Q9UQ49); assay: Inhibition of human NEU3 expressed in HEK293A cells as substrate incubated for 1 hr by spectrofluorometric analysis; design: species or system HEK293
T1 sequence (Q9UQ49 whole entry): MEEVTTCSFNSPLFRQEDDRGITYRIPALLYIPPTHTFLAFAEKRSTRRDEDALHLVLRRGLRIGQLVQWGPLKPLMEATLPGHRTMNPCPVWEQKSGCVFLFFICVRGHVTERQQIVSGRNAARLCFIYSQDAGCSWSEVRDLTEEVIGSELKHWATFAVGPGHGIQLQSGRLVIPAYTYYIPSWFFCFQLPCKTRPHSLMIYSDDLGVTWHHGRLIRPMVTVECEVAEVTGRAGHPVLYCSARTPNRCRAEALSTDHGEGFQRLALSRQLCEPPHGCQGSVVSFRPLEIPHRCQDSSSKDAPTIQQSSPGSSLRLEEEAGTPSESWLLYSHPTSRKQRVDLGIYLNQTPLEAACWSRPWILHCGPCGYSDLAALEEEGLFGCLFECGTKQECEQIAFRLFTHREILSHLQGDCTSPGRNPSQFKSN

[2] = Inhibition of Newcastle disease virus neuraminidase using 4-MUNeu5Ac as substrate incubated for 15 mins by spectrofluorometric analysis; design: species or system avian paramyxovirus 1

Compound	IC50 [1] [µM]	IC50 [2] [µM]
CCCCCCCCS[C@@]1(C(=O)O)C=C[C@@H](NC(C)=O)[C@H]([C@H](O)[C@H](O)CO)O1	> 1000	406
CO[C@]1(C(=O)O)C=C[C@@H](NC(C)=O)[C@H]([C@H](O)[C@H](O)CO)O1	> 1000	> 1000
O=C(O)C1=C[C@H](O)[C@@H](NC(=O)C(F)(F)F)[C@H]([C@H](O)[C@H](O)CO)O1	3.9	2.45
CC(=O)N[C@@H]1C=C[C@@](OC(C)C)(C(=O)O)O[C@H]1[C@H](O)[C@H](O)CO	> 1000	148
CC(=O)N[C@@H]1C=C[C@](OC(C)C)(C(=O)O)O[C@H]1[C@H](O)[C@H](O)CO	> 1000	511
CCS[C@]1(C(=O)O)C=C[C@@H](NC(C)=O)[C@H]([C@H](O)[C@H](O)CO)O1	> 1000	100
[N-]=[N+]=N[C@H]1C=C(C(=O)O)O[C@@H]([C@H](O)[C@H](O)CO)[C@@H]1NC(=O)C(F)(F)C(F)(F)C(F)(F)F		0.213
CCS[C@@]1(C(=O)O)C=C[C@@H](NC(C)=O)[C@H]([C@H](O)[C@H](O)CO)O1	> 1000	248
CCCO[C@@]1(C(=O)O)C=C[C@@H](NC(C)=O)[C@H]([C@H](O)[C@H](O)CO)O1	> 1000	512
CCCCO[C@@]1(C(=O)O)C=C[C@@H](NC(C)=O)[C@H]([C@H](O)[C@H](O)CO)O1	> 1000	485
CCO[C@@]1(C(=O)O)C=C[C@@H](NC(C)=O)[C@H]([C@H](O)[C@H](O)CO)O1	> 1000	384
CO[C@@]1(C(=O)O)C=C[C@@H](NC(C)=O)[C@H]([C@H](O)[C@H](O)CO)O1	> 1000	> 1000
CC(=O)N[C@H]1[C@H]([C@H](O)[C@H](O)CO)OC(C(=O)O)=C[C@@H]1O [NEU5AC2EN]	2.4	13
